Several values for one entry are separate records, joined by “and”; a condition that tells them apart may be missing. Equal values may be shown once.
System: PDC tumor spheroids with HUVEC/MSC, viability
Assay: Anticancer human tumor 439559-082-T-J2-PDC patient-derived colon adenocarcinoma cell line growth inhibition [TAK]
Details: for viability, T/C: stronger effect = lower value
Description: Combinatorial screen of targeted agents with TAK-243 and ipatasertib in multi-cell type tumor spheroids
A high-throughput screen of multi-cell type tumor spheroids was designed to identify active combinations of targeted small molecules and TAK-243 or ipatasertib. Complex spheroids include a stromal component modeled by human endothelial cells (HUVEC) and fibroblasts modeled by human mesenchymal stem cells (MSCs). The concentration ranges selected for each drug and investigational agent were based upon clinically achievable concentrations if the clinical Cmax of the agent was known.
Compounds. The drugs and investigational agents: TAK-243 (785004), ipatasertib (767898), everolimus (733504), selumetinib (741078), bortezomib (756655), trametinib (758246), ixazomib (758254), vemurafenib (761431), dabrafenib (764134), sapanisertib (764658), alpelisib (765974), and copanlisib (816437), were obtained from the National Cancer Institute (NCI) Developmental Therapeutics Program Chemical Repository. The FDA-approved anticancer drug set is available from the NCI Developmental Therapeutics Program. […] The stock solutions were prepared in dimethyl sulfoxide (DMSO, Sigma-Aldrich, St. Louis, MO, cat. D2650) at 800-fold the tested concentration and stored at -70 degrees C prior to their use. All drugs and investigational agents were tested over a range starting from a high concentration at or near the clinical Cmax and decreasing in half-log increments. If the clinical Cmax for an agent had not been determined, the highest concentration tested was 10 microM.
NCI60 Cell Culture. NCI60 cell lines were obtained from the NCI Developmental Therapeutics Program Tumor Repository. For each lot of cells, the Repository performed Applied Biosystems AmpFLSTR Identifiler testing with PCR amplification to confirm consistency with the published Identifier STR profile for each cell line. Cells were kept in continuous culture for no more than 20 passages. The optimal seeding densities for each of the cell lines at each time point assessed were determined prior to performing the concentration response studies. Briefly, the NCI60 human tumor lines were grown as monolayers in RPMI 1640 medium supplemented with 10% FBS and 2 mmol/L L-glutamine.
An additional 2 lines were from the NCI60 cell line panel including melanomas, MALME-3M and SK-MEL-2. Pooled donor human umbilical vein endothelial cells (HUVEC, Lonza, cat. CC-2519) and human mesenchymal stem cells (hMSC, Lonza, cat. PT-2501) were purchased from Lonza (Walkersville, MD).
PDMR cell lines were grown in complete medium (DC medium): Dulbecco's modified Eagle's medium (DMEM)/F12 supplemented with 5% fetal bovine serum (FBS), 2 mM L-glutamine, 100 U/mL penicillin and 100 µg/ml streptomycin, 0.4 µg/ml hydrocortisone, 10 ng/ml epidermal growth factor (EGF) recombinant human protein, 24 µg/mL adenine, and 0.1 mg/mL primocin. During culture from frozen stock vials, PDMR cells were cultured in the same medium containing 10 µM Y-27632 (see Table 3). The PDCs were cultured in complete DMEM/F12 media without 10 microM Y-27632 dihydrochloride for at least two passages prior to the screen. The pooled donor HUVEC and hMSC were cultured in endothelial cell growth medium 2 (PromoCell, Heidelberg, Germany, cat. C-22011) and mesenchymal stem cell growth medium 2 (PromoCell, cat. C-28009), respectively. For all experiments, HUVEC and hMSC were used at passages </=5.
For the pre-screen, cell seeding densities were determined from a titration spanning the range from 5,000 to 313 cells per well. The mct-spheroids including 60% malignant cells, 25% HUVEC and 15% MSC dispensed as a mixture into U-bottom Ultra-Low Attachment 384-well plates (Corning, NY)
High-throughput Drug Combination Screening.
Prior to their inoculation into 384-well plates, malignant cells, HUVEC, and hMSC were removed from T flasks using TrypLE express (Thermo Fisher Scientific, cat. 12605036) and harvested by centrifugation for 5 min at 233 x g. […]
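Further: spheroids exposed to drugs for seven days before readout.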

COc1c(OCCCN2CCOCC2)ccc2c3n(c(=NC(=O)c4cnc(N)nc4)nc12)CCN3 + CC(C)NCC(C(=O)N1CCN(c2ncnc3c2C(C)CC3O)CC1)c1ccc(Cl)cc1
IC50 (curve of first compound, second compound 0.3 µM): > 1 µM
IC50 (curve of first compound, second compound 0.949 µM): > 1 µM
IC50 (curve of first compound, second compound 3 µM): > 1 µM
IC50 (curve of first compound, second compound 9.49 µM): > 1 µM
IC50 (curve of first compound, second compound 30 µM): > 1 µM
viability, T/C (second compound 0.3 µM, first compound 0.00316 µM): 98.6%
viability, T/C (second compound 0.3 µM, first compound 0.01 µM): 89.5%
viability, T/C (second compound 0.3 µM, first compound 0.0316 µM): 71.3%
viability, T/C (second compound 0.3 µM, first compound 0.1 µM): 73.3%
viability, T/C (second compound 0.3 µM, first compound 0.316 µM): 61.8%
viability, T/C (second compound 0.3 µM, first compound 1 µM): 66.9%
viability, T/C (second compound 0.949 µM, first compound 0.00316 µM): 98.5%
viability, T/C (second compound 0.949 µM, first compound 0.01 µM): 91.5%
viability, T/C (second compound 0.949 µM, first compound 0.0316 µM): 76.2%
viability, T/C (second compound 0.949 µM, first compound 0.1 µM): 72.4%
viability, T/C (second compound 0.949 µM, first compound 0.316 µM): 66.8%
viability, T/C (second compound 0.949 µM, first compound 1 µM): 65.8%
viability, T/C (second compound 3 µM, first compound 0.00316 µM): 85.1%
viability, T/C (second compound 3 µM, first compound 0.01 µM): 88.4%
viability, T/C (second compound 3 µM, first compound 0.0316 µM): 75.5%
viability, T/C (second compound 3 µM, first compound 0.1 µM): 71.3%
viability, T/C (second compound 3 µM, first compound 0.316 µM): 66.8%
viability, T/C (second compound 3 µM, first compound 1 µM): 69.7%
viability, T/C (second compound 9.49 µM, first compound 0.00316 µM): 90.6%
viability, T/C (second compound 9.49 µM, first compound 0.01 µM): 80.8%
viability, T/C (second compound 9.49 µM, first compound 0.0316 µM): 80.9%
viability, T/C (second compound 9.49 µM, first compound 0.1 µM): 73.7%
viability, T/C (second compound 9.49 µM, first compound 0.316 µM): 67.8%
viability, T/C (second compound 9.49 µM, first compound 1 µM): 70.9%
viability, T/C (second compound 30 µM, first compound 0.00316 µM): 83.9%
viability, T/C (second compound 30 µM, first compound 0.01 µM): 79%
viability, T/C (second compound 30 µM, first compound 0.0316 µM): 72.6%
viability, T/C (second compound 30 µM, first compound 0.1 µM): 68.9%
viability, T/C (second compound 30 µM, first compound 0.316 µM): 64.5%
viability, T/C (second compound 30 µM, first compound 1 µM): 72.7%

COC1CC2CCC(C)C(O)(O2)C(=O)C(=O)N2CCCCC2C(=O)OC(C(C)CC2CCC(OCCO)C(OC)C2)CC(=O)C(C)C=C(C)C(O)C(OC)C(=O)C(C)CC(C)C=CC=CC=C1C (stereo unspecified)
viability, T/C (compound 0.000316 µM): 110% and 103%
viability, T/C (compound 0.001 µM): 97.7% and 98.1%
viability, T/C (compound 0.00316 µM): 90.7% and 89.7%
viability, T/C (compound 0.01 µM): 82.7% and 90.2%
viability, T/C (compound 0.0316 µM): 90.9% and 86%
viability, T/C (compound 0.1 µM): 91.7% and 92.3%
IC50 (curve of compound): > 0.1 µM

Cn1cnc2c(F)c(Nc3ccc(Br)cc3Cl)c(C(=O)NOCCO)cc21
viability, T/C (compound 0.00949 µM): 101% and 110%
viability, T/C (compound 0.03 µM): 90.2% and 101%
viability, T/C (compound 0.0949 µM): 83.1% and 76.7%
viability, T/C (compound 0.3 µM): 71.4% and 79.2%
viability, T/C (compound 0.949 µM): 74.4% and 74.2%
viability, T/C (compound 3 µM): 65.5% and 64.2%
IC50 (curve of compound): > 3 µM

CC(C)CC(NC(=O)C(Cc1ccccc1)NC(=O)c1cnccn1)B(O)O (stereo unspecified)
viability, T/C (compound 31.6 pM): 111% and 105%
viability, T/C (compound 0.0001 µM): 104% and 98.9%
viability, T/C (compound 0.000316 µM): 102% and 98.8%
viability, T/C (compound 0.001 µM): 103% and 101%
viability, T/C (compound 0.00316 µM): 100% and 97.5%
viability, T/C (compound 0.01 µM): 66.4% and 69.6%
IC50 (curve of compound): > 0.01 µM

Reference: PubChem BioAssay AID2060356 (Molecular Pharmacology Branch, DTP, NCI, 2025)
